The conditions of data set [1]: chemical chaperones that inhibit ER stress; cited from earlier work.
The next data set deals with T1, sEH (Homo sapiens, UniProt P34913).
T1 sequence (P34913 1-555): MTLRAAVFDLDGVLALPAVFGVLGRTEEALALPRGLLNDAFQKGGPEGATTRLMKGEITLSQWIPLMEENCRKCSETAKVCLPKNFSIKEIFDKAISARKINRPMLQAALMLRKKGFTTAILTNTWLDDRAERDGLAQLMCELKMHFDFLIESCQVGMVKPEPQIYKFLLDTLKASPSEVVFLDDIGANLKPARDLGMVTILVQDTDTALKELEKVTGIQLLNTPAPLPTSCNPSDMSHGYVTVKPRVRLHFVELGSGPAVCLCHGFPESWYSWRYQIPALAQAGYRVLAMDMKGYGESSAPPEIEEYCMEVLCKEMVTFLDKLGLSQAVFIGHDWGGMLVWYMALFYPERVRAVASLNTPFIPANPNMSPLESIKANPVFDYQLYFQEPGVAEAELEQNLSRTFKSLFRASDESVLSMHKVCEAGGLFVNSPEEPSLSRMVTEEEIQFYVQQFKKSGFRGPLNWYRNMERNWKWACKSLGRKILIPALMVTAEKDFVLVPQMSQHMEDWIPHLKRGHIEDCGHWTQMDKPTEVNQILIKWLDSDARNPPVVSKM
Put plainly: sEH inhibition, assay not specified. Type of data set: biochemical. From the text:
“Soluble epoxide hydrolase” (“sEH”) is an epoxide hydrolase which in endothelial and smooth muscle cells converts EETs to dihydroxy derivatives called dihydroxyeicosatrienoic acids (“DHETs”). The cloning and sequence of the murine sEH is set forth in Grant et al., J. Biol. Chem. 268(23):17628-17633 (1993). The cloning, sequence, and accession numbers of the human sEH sequence are set forth in Beetham et al., Arch. Biochem. Biophys. 305(1):197-201 (1993). The amino acid sequence of human sEH is SEQ ID NO.:1, while the nucleic acid sequence encoding the human sEH is SEQ ID NO.:2. (The sequence set forth as SEQ ID NO.:2 is the coding portion of the sequence set forth in the Beetham et al. 1993 paper and in the NCBI Entrez Nucleotide Browser at accession number L05779, which include the 5′ untranslated region and the 3′ untranslated region.) The evolution and nomenclature of the gene is discussed in Beetham et al., DNA Cell Biol. 14(1):61-71 (1995). Soluble epoxide hydrolase represents a single highly conserved gene product with over 90% homology between rodent and human (Arand et al., FEBS Lett., 338:251-256 (1994)). Unless otherwise specified, as used herein, the terms “soluble epoxide hydrolase” and “sEH” refer to human sEH. […]

Data set [2] can be described thus: Metabolic stability, method not specified. Type of data set: in vitro ADME.

Consider `C[C@H](CCC(=O)NCCS(=O)(=O)O)[C@H]1CC[C@H]2[C@@H]3[C@@H](O)C[C@@H]4C[C@H](O)CC[C@]4(C)[C@H]3CC[C@]12C` [TUDCA, tauroursodeoxycholic acid], for which the DN disease progression entry in data set [1] was “slow DN disease progression”. In the case of `O=C(O)CCCc1ccccc1` [4-PBA, 4-phenyl butyric acid], the DN disease progression entry in data set [1] is “slow DN disease progression”. In the case of `CCCCCCCCCCCCNC(=O)NC12CC3CC(CC(C3)C1)C2` [ADU, N-Adamantyl-N′-dodecyl urea], the “activity on sEH” value at sEH is reported as “particularly high activity”. The metabolic stability result in data set [2] is “metabolically stable”.

These data come from patent US20180185309A1, “METHODS AND COMPOSITIONS FOR TREATING NEPHROPATHY” (The Regents of the University of California, priority 2015, published 2018).
